Assay results as given in patent publication US20130316022A1, “METHOD TO ENHANCE ANTIMICROBIAL ACTIVITY BY INCREASING pH” (University of Iowa Research Foundation, priority 2012, published 2013).

Key:
S. aureus = conditions: bacteria on grids exposed for 30 seconds
Method: Gold grids (TEM grids, 200 mesh, Ted Pella Inc.) were immersed in 1 mM 11-mercaptoundecanoic acid (HS(CH2)10COOH, MUA, Aldrich) solution for 30 minutes at room temperature and then exposed to 1-ethyl-3-(3-diethylaminopropyl)carbodiimide (EDC) and N-hydroxysuccinimide (NHS) (molar ratio 1:2) for 30 minutes to activate the carboxyl groups of MUA. Grids were then placed in a phosphate buffer solution (PBS), pH 7.4, containing 10 μg/ml streptavidin (Sigma) for 30 minutes and then rinsed with PBS. Streptavidin-coated grids were immersed in 1 M glycine for 30 minutes to quench the reaction and then rinsed with PBS. We used S. aureus isolate 43SA (isolated from a CF pig with pulmonary infection^5), and P. aeruginosa PAO1. […] Bacteria were cultured to log phase growth and 1×10^8 bacteria were mixed with 0.1 mg/ml N-hydroxysulfosuccinimide (sulfo-NHS)-biotin (Thermo Scientific) for 1 hour at room temperature. Streptavidin-coated grids were then incubated with biotinylated bacteria for 30 minutes and rinsed in PBS.
Bacteria-coated grids were used in three preparations. They were placed on the airway surface in vivo in pigs. […]
(§1) For each experimental condition, time point, and/or animal, 2 or 3 grids were examined. For each grid, all live and dead bacteria were counted in 5-16 individual microscopic (60×) fields; each microscopic field contained about 100-1000 bacteria. […]

[1] = ASL pH measured in vivo with pH-sensitive planar optode on tracheal surface; set-up: species or system pig
From the text: To assess pH in vivo, we used non-invasive dual lifetime referencing to interrogate a 3×3 mm planar optode (pH sensitive foil, PreSens GmbH, Regensburg, Germany)^13 applied directly to the tracheal surface. The device used to transmit and receive the excitation and emission light was a single channel pH meter (pH-1 mini; PreSens GmbH). The tip of the fiberoptic pH meter was kept at the same distance from the tracheal surface in all samples and confirmed by recording the amplitude registered by the device. Calibration before each set of measurements was done by placing the planar optode on the surface of a flat filter soaked in standard pH buffers.
(§2) To decrease airway pH in non-CF pigs, CO2 concentration was controlled in a humidified chamber (100% measured relative humidity, 25-30° C.) using 0 or 15% CO2 and 21% O2 in N2.

S. aureus isolate 43SA = assay: Bacterial killing by S. aureus-coated grids placed on tracheal surface in vivo
Method: Bacteria were cultured to log phase growth and 1×10^8 bacteria were mixed with 0.1 mg/ml N-hydroxysulfosuccinimide (sulfo-NHS)-biotin (Thermo Scientific) for 1 hour at room temperature. Streptavidin-coated grids were then incubated with biotinylated bacteria for 30 minutes and rinsed in PBS.
Bacteria-coated grids were used in three preparations. They were placed on the airway surface in vivo in pigs. They were tested in ASL removed from pigs after methacholine stimulation. They were also placed on the apical surface of primary cultures of differentiated airway epithelia. In each case, after removal from ASL, they were immediately (2-3 seconds) rinsed with PBS and then immersed in PBS containing the fluorescent indicators SYTO 9 and propidium iodide (Live/Dead BacLight™ Bacterial Viability assay, Invitrogen). Propidium iodide staining and this assay indicate the percentage of dead cells (Invitrogen, Molecular Probes product information and Fig. S7). […]
as §1, §2

ethanol [70% alcohol]
% dead (S. aureus): 97%

O=C([O-])O.[Na+] [NaHCO3]
ASL pH ([1]; CF pigs, 50 μL 100 mM aerosolized onto airway surface): 7.43 ± 0.30 (7) | % dead (S. aureus isolate 43SA; CF pigs, 50 μL 100 mM aerosolized onto airway surface, grids 30 seconds): 64.4 ± 7.0 (5) %

O=C=O [CO2, reference compound]
ASL pH ([1]; non-CF pigs, tracheas exposed to 15% CO2 in vivo): 6.89 ± 0.15 (6) | % dead (S. aureus isolate 43SA; non-CF pigs, 15% CO2, grids on surface for 30 seconds): 18.5 ± 6.8 (4) %
